# Results published in ChEMBL document CHEMBL1201862, “PubChem BioAssay data set” (2004).
#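 Method: 48-hour compound exposure of cells in 96-well plates, five concentrations, linear interpolation of endpoints. At the GI50, growth is halved.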 Calls of active or inactive are those of the source. Rule as the data show it: active = GI50 up to about 1.1 µM and inactive = higher. Bridge positions count the residues as written; N and C are the ends. Square brackets hold non-standard residues; d marks the D form. Peptide text beside a SMILES is read from it. I, II: the chains in the order shown. * marks the point of attachment. Quinoxaline2carbonyl = O=C(c1cnc2ccccc2n1)*; NMeV = CN[CH](C(=O)O)C(C)C; NMeC = CN[CH](CS)C(=O)O
# Experiments:
# Test in all cases: inhibition of tumour cell growth, NCI panel, 48 h
# K562 = tested on: K562
# HOP-92 = tested on: HOP-92
# PC-3 = tested on: PC-3
# A498 = tested on: A498
# M14 = tested on: M14
# TK-10 = tested on: TK-10
# IGROV-1 = tested on: IGROV-1
# COLO 205 = tested on: COLO 205
# SK-OV-3 = tested on: SK-OV-3
# BT-549 = tested on: BT-549
# SK-MEL-5 = tested on: SK-MEL-5
# MDA-N = tested on: MDA-N
# UO-31 = tested on: UO-31
# EKVX = tested on: EKVX
# A549 = tested on: A549
# NCI-H23 = tested on: NCI-H23
# SNB-19 = tested on: SNB-19
# SNB-75 = tested on: SNB-75
# CCRF-CEM = tested on: CCRF-CEM
SMILES,GI50 (K562),GI50 (HOP-92),GI50 (PC-3),GI50 (A498),GI50 (M14),GI50 (TK-10),GI50 (IGROV-1),GI50 (COLO 205),GI50 (SK-OV-3),GI50 (BT-549),GI50 (SK-MEL-5),GI50 (MDA-N),GI50 (UO-31),GI50 (EKVX),GI50 (A549),GI50 (NCI-H23),GI50 (SNB-19),GI50 (SNB-75),GI50 (CCRF-CEM)
COc1ccc2c(c1)CCc1c-2n(CCN(C)C)c2ccc(OC)cc12,3.77 µM (inactive),94.2 µM (inactive),12.1 µM (inactive),17.6 µM (inactive),3.6 µM (inactive),24.2 µM (inactive),18.7 µM (inactive),4.38 µM (inactive),25.9 µM (inactive),29.1 µM (inactive),12.4 µM (inactive),5.46 µM (inactive),14 µM (inactive),31.2 µM (inactive),15 µM (inactive),16.3 µM (inactive),11.6 µM (inactive),21.2 µM (inactive),2.38 µM (inactive)
CC1=NOC(=O)/C1=C/c1ccc2c(c1)OCO2,55.3 µM (inactive),30.2 µM (inactive),21 µM (inactive),26.3 µM (inactive),35.3 µM (inactive),39.2 µM (inactive),25.2 µM (inactive),17.7 µM (inactive),> 100 µM (inactive),24 µM (inactive),34.1 µM (inactive),32.3 µM (inactive),21.1 µM (inactive),77.3 µM (inactive),61.8 µM (inactive),37.3 µM (inactive),30.7 µM (inactive),22.1 µM (inactive),20.7 µM (inactive)
CC1=CC(=O)c2ccccc2C1=O [MENADIONE],2.38 µM (inactive),1.55 µM (inactive),3.61 µM (inactive),22.6 µM (inactive),5.66 µM (inactive),19.9 µM (inactive),15.7 µM (inactive),17.7 µM (inactive),13 µM (inactive),12.3 µM (inactive),2.18 µM (inactive),0.91 µM (active),2.65 µM (inactive),17.2 µM (inactive),18.5 µM (inactive),7.06 µM (inactive),17.9 µM (inactive),10.2 µM (inactive),2.03 µM (inactive)
"CC1NC(=O)C(NC(=O)c2cnc3ccccc3n2)COC(=O)C(C(C)C)N(C)C(=O)C2CSSCC(C(=O)N(C)C(C(C)C)C(=O)OCC(NC(=O)c3cnc4ccccc4n3)C(=O)NC(C)C(=O)N2C)N(C)C1=O (stereo not given) (I: Quinoxaline2carbonyl-SA[NMeC][NMeV] / II: Quinoxaline2carbonyl-SA[NMeC][NMeV]; ester I:1-II:C, I:C-II:1; disulfide I:3-II:3; configuration not given here)",< 0.01 µM (active),< 0.01 µM (active),< 0.01 µM (active),< 0.01 µM (active),< 0.01 µM (active),< 0.01 µM (active),< 0.01 µM (active),< 0.01 µM (active),< 0.01 µM (active),< 0.01 µM (active),0.0316 µM (active),< 0.01 µM (active),< 0.01 µM (active),< 0.01 µM (active),< 0.01 µM (active),< 0.01 µM (active),< 0.01 µM (active),< 0.01 µM (active),< 0.01 µM (active)
CN(NC(=O)c1ccco1)C1=NCCN1,> 100 µM (inactive),> 100 µM (inactive),> 100 µM (inactive),> 100 µM (inactive),> 100 µM (inactive),> 100 µM (inactive),> 100 µM (inactive),> 100 µM (inactive),> 100 µM (inactive),> 100 µM (inactive),> 100 µM (inactive),> 100 µM (inactive),> 100 µM (inactive),> 100 µM (inactive),> 100 µM (inactive),> 100 µM (inactive),> 100 µM (inactive),> 100 µM (inactive),> 100 µM (inactive)
